Measurements as given in paper PMC3412067 (Journal of medicinal chemistry, 2012).
Entries after “also recorded” stand apart in the source; their conditions may differ. Where two headings read alike, the source gives them in different places. Marks after values point to notes of the source that are not given here.

What was measured:
CD-1 mice [1] = assay: Radiant heat tail flick analgesia assay; type: in vivo, mouse; conditions: for analgesic activity (in words): tail flick, doses as high as 10 mg/kg
DOR-1 (delta) = DOR-1 (delta) (Mus musculus, UniProt P32300); assay: Competition binding against 125I-BNtxA in CHO cells stably expressing DOR-1; conditions: for fold lower affinity for delta receptors: compared to 15
6TM/E11 sites = 6TM/E11 sites (Mus musculus, UniProt P42866); type: binding; conditions: compared to 15
MOR-1 (mu) = MOR-1 (mu) (Mus musculus, UniProt P42866); assay: Competition binding against 125I-BNtxA in CHO cells stably expressing MOR-1
KOR-1 (kappa) = KOR-1 (kappa) (Mus musculus, UniProt P33534); assay: Competition binding against 125I-BNtxA in CHO cells stably expressing KOR-1
mice [2] = assay: Respiratory depression assay; type: in vivo, mouse; conditions: 15 2.5 mg/kg s.c., morphine 20 mg/kg s.c., about 4-fold analgesic ED50; n=5
mice [3] = conditions: cited from earlier work
mice [4] = conditions: cited from earlier work; remark: listed apart in the source
knockout mouse = conditions: cited from earlier work
CD-1 mice [5] = conditions: cited from earlier work
[6] = cited from earlier work
mice [7] = conditions: cited from earlier work; remark: listed apart in the source

Compound: CN1CC[C@]23c4c5ccc(O)c4O[C@H]2[C@H](NC(=O)c2cccc(I)c2)CC[C@@]3(O)[C@H]1C5 [Compound 14]
- analgesic activity (in words) (CD-1 mice [1]; s.c.): No analgesia could be detected

Compound: C=CCN1CC[C@]23c4c5ccc(O)c4O[C@H]2[C@@H](NC(=O)c2cccc(I)c2)CC[C@@]3(O)[C@H]1C5 [Compound 16, 17-Allyl-3,14β-dihydroxy-4,5α-epoxy-6α-[(3′-iodo)benzamido]morphinan]
- fold lower affinity for delta receptors (DOR-1 (delta)): 3 fold
- fold lower binding affinity for the 6TM/E11 site (6TM/E11 sites): 33 fold
- fold lower affinity for mu receptors (MOR-1 (mu); compared to 15): 23 fold
- fold higher ED50 / lower analgesic activity (CD-1 mice [1]; compared to 15): 10 fold
- fold lower affinity for kappa receptors (KOR-1 (kappa); compared to 15): 150 fold

Compound: C=CCN1CC[C@]23c4c5ccc(O)c4O[C@H]2[C@H](NC(=O)c2ccccc2I)CC[C@@]3(O)[C@H]1C5 [Compound 17, 17-Allyl-3,14β-dihydroxy-4,5α-epoxy-6β-[(2′-iodo)benzamido]morphinan]
- fold lower affinity for delta receptors (DOR-1 (delta)): approximately 10 fold
- fold lower binding affinity for the 6TM/E11 site (6TM/E11 sites): 100 fold
- fold lower affinity for mu receptors (MOR-1 (mu); compared to 15): approximately 10 fold
- analgesic activity (in words) (CD-1 mice [1]; s.c.): eliminated its analgesic activity
- fold lower affinity for kappa receptors (KOR-1 (kappa); compared to 15): approximately 10 fold

Compound: C=CCN1CC[C@]23c4c5ccc(O)c4O[C@H]2[C@H](NC(=O)CCCCC)CC[C@@]3(O)[C@H]1C5 [Compound 34, 17-Allyl-3,14β-dihydroxy-4,5α-epoxy-6β-(hexylamido)morphinan]
- Ki (KOR-1 (kappa)): 9.15 ± 0.94 nM

Compound: C=CCN1CC[C@]23c4c5ccc(O)c4O[C@H]2[C@H](NC(=O)c2ccccc2)CC[C@@]3(O)[C@H]1C5 [Compound 22, 17-Allyl-3,14β-dihydroxy-4,5α-epoxy-6β-(benzamido)morphinan]
- fold lower affinity for delta receptors (DOR-1 (delta)): ~25 fold
- fold lower binding affinity for the 6TM/E11 site (6TM/E11 sites): over 20 fold
- fold lower affinity for mu receptors (MOR-1 (mu); compared to 15): about 20 fold
- fold lower affinity for kappa receptors (KOR-1 (kappa); compared to 15): ~180 fold

Compound: C=CCN1CC[C@]23c4c5ccc(O)c4O[C@H]2[C@H](NC(=O)c2cccc(C(F)(F)F)c2)CC[C@@]3(O)[C@H]1C5 [Compound 24, 17-Allyl-3,14β-dihydroxy-4,5α-epoxy-6β-[(3′-trifluoromethyl)benzamido]morphinan]
- analgesic activity (in words) (CD-1 mice [1]; s.c.): potent analgesic actions

Compound: CN1CC[C@]23c4c5ccc(O)c4O[C@H]2[C@@H](O)C=C[C@H]3[C@H]1C5 [morphine, reference compound]
- effect on respiratory rate (in words) (mice [2]): decreases respiratory depression

Compound: O=C(N[C@@H]1CC[C@@]2(O)[C@H]3Cc4ccc(O)c5c4[C@@]2(CCN3CC2CC2)[C@H]1O5)c1cccc(I)c1 [Compound 1, 3-Iodobenzoylnaltrexamide]
- inhibition of gastrointestinal transit (in words) (mice [3]): limited inhibition of gastrointestinal transit
- respiratory depression (in words) (mice [4]): no observable respiratory depression
- analgesic activity in E11 knockout mouse (in words) (knockout mouse; E11 knockout mouse, disruption of exon 11-associated variants ref 26): without activity
- analgesic activity in MOR-1/DOR-1/KOR-1 triple knockout mouse (in words) (knockout mouse; triple knockout mouse lacking traditional mu, delta and kappa1 receptors ref 26): retained full analgesic activity
- Tail flick analgesia ED50 mg/kg (95%CL) (CD-1 mice [5]; (95% confidence limits), values from the literature ref 26): 0.39 (0.15, 0.58) ^a mg/kg
- cross tolerance to morphine (in words) (CD-1 mice [5]): no observable
- analgesic potency fold greater than morphine (CD-1 mice [5]; compared to morphine ref 26): 10 fold
- rewarding behavior in the conditioned place preference assay (in words) [6]: no observable
- physical dependence (in words) (mice [7]): no observable

Compound: 17-Allyl-3,14β-dihydroxy-4,5α-epoxy-6β-[2-adamantylamido]morphinan [Compound 37]
- Tail flick analgesia ED50 mg/kg (95%CL) (CD-1 mice [1]; s.c., CD-1 mice, radiant heat tail flick, (95% confidence limits)): >10 mg/kg

Compound: O=C(NC1CCC2(O)C3Cc4ccc(O)c5c4C2(CCN3CC2CC2)C1O5)c1cccc(I)c1 (stereo not shown) [Compound 125IBNtxA, reference compound]
- Kd (DOR-1 (delta); read-out: 125IBNtxA KD DOR-1, radioligand KD): 0.24 nM
- Kd (MOR-1 (mu); read-out: 125IBNtxA KD MOR-1, radioligand KD): 0.11 nM
- Kd (KOR-1 (kappa); read-out: 125IBNtxA KD KOR-1, radioligand KD): 0.03 nM

Compound: C=CCN1CC[C@]23c4c5ccc(O)c4O[C@H]2[C@H](NC(=O)c2cccc(I)c2)CC[C@@]3(O)[C@H]1C5 [Compound 15, 17-Allyl-3,14β-dihydroxy-4,5α-epoxy-6β-[(3′-iodo)benzamido]morphinan]
- effect on respiratory rate (in words) (mice [2]): did not depress respiratory rate; also recorded: no respiratory depression
- fold lower affinity for mu receptors (MOR-1 (mu); compared to 1): about 2 fold
- fold more potent an analgesic than morphine (CD-1 mice [1]; compared to morphine): 10 fold
- fold lower affinity for kappa receptors (KOR-1 (kappa); compared to 1): about 2 fold

Compound: C=CCN1CC[C@]23c4c5ccc(O)c4O[C@H]2[C@H](NC(=O)c2ccc(-c4ccccc4)cc2)CC[C@@]3(O)[C@H]1C5 [Compound 32, 17-Allyl-3,14β-dihydroxy-4,5α-epoxy-6β-[(4′-phenyl)benzamido]morphinan]
- analgesic activity (in words) (CD-1 mice [1]; s.c.): not analgesic

Compound: C=CCN1CC[C@]23c4c5ccc(O)c4O[C@H]2[C@H](NC(=O)c2cccc(OC)c2)CC[C@@]3(O)[C@H]1C5 [Compound 25, 17-Allyl-3,14β-dihydroxy-4,5α-epoxy-6β-[(3′-methoxy)benzamido]morphinan]
- fold lower binding affinity for the 6TM/E11 site (6TM/E11 sites): 10 fold
- fold mu selectivity over delta (MOR-1 (mu); mu vs delta): 100 fold
- fold greater analgesic potency (CD-1 mice [1]; compared to 15): over 3 fold
- analgesic activity (in words) (CD-1 mice [1]; s.c.): potent analgesic actions
